Results on 23 molecules are retold here after ChEMBL document CHEMBL1201862, “PubChem BioAssay data set” (2004).

For assay [1], the target named is T1, Heat shock factor protein 1 (Mus musculus, UniProt P38532).
T1 sequence (P38532 whole entry): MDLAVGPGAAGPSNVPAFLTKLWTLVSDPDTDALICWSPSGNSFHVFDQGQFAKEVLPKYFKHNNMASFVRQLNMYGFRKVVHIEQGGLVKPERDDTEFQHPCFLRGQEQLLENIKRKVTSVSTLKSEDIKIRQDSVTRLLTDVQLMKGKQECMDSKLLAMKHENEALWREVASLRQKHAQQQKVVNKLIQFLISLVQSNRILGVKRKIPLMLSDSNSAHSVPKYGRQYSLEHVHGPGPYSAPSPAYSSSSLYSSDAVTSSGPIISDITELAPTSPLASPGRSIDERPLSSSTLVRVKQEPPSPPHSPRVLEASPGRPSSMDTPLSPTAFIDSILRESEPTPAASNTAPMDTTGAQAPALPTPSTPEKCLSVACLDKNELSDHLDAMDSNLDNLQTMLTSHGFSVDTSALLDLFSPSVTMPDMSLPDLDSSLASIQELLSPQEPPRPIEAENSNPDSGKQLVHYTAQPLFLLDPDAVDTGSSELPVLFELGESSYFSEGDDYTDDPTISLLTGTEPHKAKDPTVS
The assay is described as follows: HSF1 potentiators in luciferase reporter cells, confirmation, cell-based, NIH3T3, luminescence, dose retest (AID 435004).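 Further: stress induced by proteasome inhibitor MG132 added 30 min after compound; luciferase reporter driven by HSF1 response element in NIH3T3 cells; actives raise luminescence as potentiators of the MG132 stress response.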 The format is functional. (In a reporter assay the amount or activity of a reporter protein is the signal.)

In assay [2] the target is T2, Microphthalmia-associated transcription factor (Homo sapiens, UniProt O75030).
T2 sequence (O75030 whole entry): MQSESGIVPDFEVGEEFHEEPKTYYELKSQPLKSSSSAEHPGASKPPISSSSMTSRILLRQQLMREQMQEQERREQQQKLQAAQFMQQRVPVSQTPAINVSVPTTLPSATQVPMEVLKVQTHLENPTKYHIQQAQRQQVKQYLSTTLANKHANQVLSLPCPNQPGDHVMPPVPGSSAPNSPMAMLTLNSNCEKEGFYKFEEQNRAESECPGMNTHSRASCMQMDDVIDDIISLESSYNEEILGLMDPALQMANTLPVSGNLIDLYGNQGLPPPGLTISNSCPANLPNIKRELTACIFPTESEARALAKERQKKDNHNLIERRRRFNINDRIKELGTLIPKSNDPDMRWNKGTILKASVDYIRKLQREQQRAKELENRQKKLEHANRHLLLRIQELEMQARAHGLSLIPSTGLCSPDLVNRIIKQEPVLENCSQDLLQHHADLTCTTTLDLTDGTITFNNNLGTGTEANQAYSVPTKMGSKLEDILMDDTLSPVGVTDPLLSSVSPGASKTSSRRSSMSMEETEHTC
The assay can be described thus: TRPM1 promoter luciferase signal decrease, dose response, MITF inhibitor project, cell-based, SK-MEL-5, cherry-picked, set 3 (AID 493073).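 Further: SK-MEL-5 melanoma cells with luciferase driven by the MITF target TRPM1 promoter.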 The format is functional.

The next assay addresses Cytochrome P450 3A4 (Homo sapiens, UniProt P08684). Particulars: Potency.
Assay [3] addresses T3, Replicative DNA helicase DnaB (Mycobacterium tuberculosis, UniProt P9WMR3).
T3 sequence (P9WMR3 whole entry): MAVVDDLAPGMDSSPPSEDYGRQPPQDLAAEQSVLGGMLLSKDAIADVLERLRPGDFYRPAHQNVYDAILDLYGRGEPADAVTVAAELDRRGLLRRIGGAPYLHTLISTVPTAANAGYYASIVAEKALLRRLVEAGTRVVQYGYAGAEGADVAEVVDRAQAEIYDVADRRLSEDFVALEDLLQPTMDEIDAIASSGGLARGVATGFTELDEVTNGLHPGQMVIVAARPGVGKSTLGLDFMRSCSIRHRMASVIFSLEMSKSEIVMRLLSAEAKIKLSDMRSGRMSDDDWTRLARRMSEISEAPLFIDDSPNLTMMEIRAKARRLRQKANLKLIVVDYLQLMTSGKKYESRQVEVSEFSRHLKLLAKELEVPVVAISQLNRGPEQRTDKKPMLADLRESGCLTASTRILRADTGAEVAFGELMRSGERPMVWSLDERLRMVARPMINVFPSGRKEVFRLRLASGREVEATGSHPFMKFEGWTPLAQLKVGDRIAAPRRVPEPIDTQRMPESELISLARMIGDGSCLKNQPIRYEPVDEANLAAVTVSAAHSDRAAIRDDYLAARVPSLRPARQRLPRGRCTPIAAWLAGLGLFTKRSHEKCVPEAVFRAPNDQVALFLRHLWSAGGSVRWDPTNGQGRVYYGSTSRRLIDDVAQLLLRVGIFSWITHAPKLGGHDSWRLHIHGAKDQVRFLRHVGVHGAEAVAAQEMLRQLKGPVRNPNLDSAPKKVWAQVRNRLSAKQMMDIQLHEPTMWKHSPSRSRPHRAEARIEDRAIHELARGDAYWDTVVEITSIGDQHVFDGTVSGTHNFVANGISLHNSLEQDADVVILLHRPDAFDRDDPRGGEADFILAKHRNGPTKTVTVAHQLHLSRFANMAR
The assay is described as follows: DnaB intein splicing inhibitors, dose response, biochemical, cell-free fluorescence (AID 449749). The assay is classed as functional.

The target in the next assay is Nonstructural protein 1 (Influenza A virus, UniProt Q194T2). The assay is classed as functional, Influenza A virus (A/California/07/2009(H1N1)).
Sequence of Nonstructural protein 1 (Q194T2 whole entry): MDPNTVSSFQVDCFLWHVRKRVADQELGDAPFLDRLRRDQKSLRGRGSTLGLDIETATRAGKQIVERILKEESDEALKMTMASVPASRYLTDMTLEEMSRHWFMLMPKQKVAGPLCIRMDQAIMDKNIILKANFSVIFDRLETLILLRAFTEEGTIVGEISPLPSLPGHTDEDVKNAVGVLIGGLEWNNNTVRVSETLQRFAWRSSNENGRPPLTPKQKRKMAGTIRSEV
Assay [4] has as its target T4, Rac GTPase-activating protein 1 (Homo sapiens, UniProt Q9H0H5).
T4 sequence (Q9H0H5 whole entry): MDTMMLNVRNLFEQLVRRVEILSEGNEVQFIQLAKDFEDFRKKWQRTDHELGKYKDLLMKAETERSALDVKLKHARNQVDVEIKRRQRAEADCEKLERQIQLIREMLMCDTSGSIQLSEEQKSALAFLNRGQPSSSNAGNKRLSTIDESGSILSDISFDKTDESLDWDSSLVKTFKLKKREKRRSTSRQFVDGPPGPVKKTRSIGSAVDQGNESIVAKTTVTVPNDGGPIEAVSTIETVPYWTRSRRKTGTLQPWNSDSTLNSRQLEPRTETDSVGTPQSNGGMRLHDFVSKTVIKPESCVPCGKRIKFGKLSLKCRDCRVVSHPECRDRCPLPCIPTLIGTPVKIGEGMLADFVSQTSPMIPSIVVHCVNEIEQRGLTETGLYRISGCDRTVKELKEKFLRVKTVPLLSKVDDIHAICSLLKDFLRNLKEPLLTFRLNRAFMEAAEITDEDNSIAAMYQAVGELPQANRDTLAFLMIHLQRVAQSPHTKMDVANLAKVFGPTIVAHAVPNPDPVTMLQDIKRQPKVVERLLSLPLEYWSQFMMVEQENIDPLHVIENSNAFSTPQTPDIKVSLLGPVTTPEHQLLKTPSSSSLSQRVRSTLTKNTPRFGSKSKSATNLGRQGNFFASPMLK
The assay is described as follows: MgcRacGAP GTPase-activating activity inhibitors, confirmation, biochemical, ADP Hunter fluorescence, primary and confirmatory (AID 624330). The assay is classed as functional.

For a further assay, the target named is T5, Protein RecA (Mycobacterium tuberculosis, UniProt P9WHJ3).
T5 sequence (P9WHJ3 whole entry): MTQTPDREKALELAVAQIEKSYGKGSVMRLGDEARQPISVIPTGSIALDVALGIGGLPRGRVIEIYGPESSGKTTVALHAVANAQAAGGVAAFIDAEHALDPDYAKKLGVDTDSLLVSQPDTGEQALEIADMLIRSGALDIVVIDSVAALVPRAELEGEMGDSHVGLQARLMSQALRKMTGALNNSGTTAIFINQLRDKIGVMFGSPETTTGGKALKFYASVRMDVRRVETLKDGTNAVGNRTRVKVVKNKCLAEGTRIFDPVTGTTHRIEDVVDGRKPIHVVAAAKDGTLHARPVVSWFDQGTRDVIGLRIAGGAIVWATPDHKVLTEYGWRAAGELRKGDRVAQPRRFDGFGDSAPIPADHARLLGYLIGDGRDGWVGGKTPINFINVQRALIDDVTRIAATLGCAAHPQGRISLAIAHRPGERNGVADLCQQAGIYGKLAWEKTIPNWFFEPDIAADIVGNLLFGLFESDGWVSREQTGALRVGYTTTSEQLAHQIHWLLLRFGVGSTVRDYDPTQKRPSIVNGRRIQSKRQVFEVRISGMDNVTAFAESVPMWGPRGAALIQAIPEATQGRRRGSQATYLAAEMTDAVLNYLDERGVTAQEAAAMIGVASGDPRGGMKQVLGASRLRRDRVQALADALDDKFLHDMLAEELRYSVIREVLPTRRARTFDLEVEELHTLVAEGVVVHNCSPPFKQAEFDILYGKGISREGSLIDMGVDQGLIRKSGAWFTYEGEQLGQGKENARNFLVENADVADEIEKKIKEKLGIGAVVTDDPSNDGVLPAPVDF
The assay can be described thus: Fluorescence Cell-Free Homogeneous Dose Retest to Identify Inhibitors of RecA-Intein Splicing Activity. [Related pubchem assays (depositor defined):AID2097, AID2223, AID489010, AID492950]. The assay is classed as functional.

Assay [5] in a line: cytotoxicity toward NIH3T3 fibroblasts, dose response, counter-screen, cell-based, ATP luminescence, mouse fibroblasts (AID 2010).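 Further: cells exposed to compound for about 90 hours before reading.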 The assay is classed as functional. On the technique in general: A counterscreen serves to expose hits that act by an unwanted route or on another target.
The nature of assay [6]: inhibitors of intracellular T. cruzi replication, confirmation, NIH3T3 host cells, beta-gal luminescence (AID 2044).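 Further: intracellular parasites grown in NIH/3T3 mouse fibroblasts as host cells; luminescent beta-galactosidase reporter signal from transgenic T. cruzi replicating inside host cells; inhibitors lower the luminescence signal.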 The assay is classed as functional, cell-based.
The next assay has as its target T6, Protein skinhead-1 (Caenorhabditis elegans, UniProt P34707).
T6 sequence (P34707 whole entry): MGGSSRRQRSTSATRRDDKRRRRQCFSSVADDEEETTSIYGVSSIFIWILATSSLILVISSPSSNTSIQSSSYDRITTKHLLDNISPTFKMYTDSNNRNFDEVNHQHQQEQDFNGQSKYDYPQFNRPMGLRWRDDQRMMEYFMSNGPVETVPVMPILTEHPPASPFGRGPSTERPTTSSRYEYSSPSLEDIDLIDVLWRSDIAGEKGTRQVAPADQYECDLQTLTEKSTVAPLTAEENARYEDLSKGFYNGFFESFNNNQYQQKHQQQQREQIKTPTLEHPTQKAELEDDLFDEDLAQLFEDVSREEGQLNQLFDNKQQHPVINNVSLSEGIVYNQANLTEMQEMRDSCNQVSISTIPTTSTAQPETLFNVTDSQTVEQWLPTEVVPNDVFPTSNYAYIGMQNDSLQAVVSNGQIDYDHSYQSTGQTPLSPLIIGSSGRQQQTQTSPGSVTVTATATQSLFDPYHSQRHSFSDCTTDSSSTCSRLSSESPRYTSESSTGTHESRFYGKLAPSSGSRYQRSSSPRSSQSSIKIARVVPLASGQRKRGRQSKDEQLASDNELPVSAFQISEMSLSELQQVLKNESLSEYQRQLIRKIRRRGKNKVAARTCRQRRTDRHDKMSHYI
The assay is classed as functional.

Active and inactive are the calls of the source.

Sequence of Cytochrome P450 3A4 (P08684 whole entry): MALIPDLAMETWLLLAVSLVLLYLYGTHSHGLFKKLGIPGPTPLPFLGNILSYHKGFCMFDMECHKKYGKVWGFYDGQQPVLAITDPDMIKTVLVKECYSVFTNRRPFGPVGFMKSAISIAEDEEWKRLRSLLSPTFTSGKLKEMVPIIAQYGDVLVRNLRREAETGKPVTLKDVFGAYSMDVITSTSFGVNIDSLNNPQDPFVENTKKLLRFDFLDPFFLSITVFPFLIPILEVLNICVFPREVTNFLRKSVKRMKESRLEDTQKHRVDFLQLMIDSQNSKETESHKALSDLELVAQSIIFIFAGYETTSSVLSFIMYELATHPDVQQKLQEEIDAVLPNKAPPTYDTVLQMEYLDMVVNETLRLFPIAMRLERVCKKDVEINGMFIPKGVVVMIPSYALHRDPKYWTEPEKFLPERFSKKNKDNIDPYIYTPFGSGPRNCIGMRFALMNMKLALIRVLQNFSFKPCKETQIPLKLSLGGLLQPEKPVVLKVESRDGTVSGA

One may read the EC50 as the concentration needed to bring the measured effect to its halfway point. Take `Cc1ccc(C)c(S(=O)(=O)N2CCCCC2CCNC(=O)C(=O)NCCc2ccco2)c1` (centres undefined): the EC50 in assay [1] was > 260 µM (inactive).

In general, AC50 refers to the midpoint of the concentration-response curve, whichever way the signal moves. In the case of `CC(C)(C)C(=O)Cn1ncc(Cl)c(Cl)c1=O`, the AC50 in [2] was 10.4 µM (active).

Regarding `Nc1cc([N+](=O)[O-])ccc1C(=O)O`, at Cytochrome P450 3A4, the AC50 is 10 µM (inconclusive).

As for `O=C(COC(=O)/C=C/c1cccc([N+](=O)[O-])c1)NCc1ccco1`, the EC50 in assay [1] was > 260 µM (inactive).

`Nc1nnnn1CC(=O)N/N=C/c1ccccn1`: the EC50 in assay [1] is > 260 µM (inactive).

In the case of `Cc1cc(OCC(=O)N(Cc2ccco2)C2CCS(=O)(=O)C2)cc(C)c1Cl` (centres undefined), the EC50 in [1] is > 260 µM (inactive).

As a reminder, the IC50 is the concentration that inhibits the measured activity by half. As to `CCc1nnc(N/N=C/c2cc(Br)c(O)cc2O)n1N`, the AC50 in assay [3] is > 380 µM (inactive). The IC50 is 6.41 µM (active) at Nonstructural protein 1 and 66.2 µM (active) in [4]. Also, on Protein RecA, the EC50 is 9.31 µM (active).

On to `COCCNC(=O)[C@@]1(Cc2ccccc2)C=C[C@@H](C)N1C(C)=O`, for which the AC50 on Cytochrome P450 3A4 was 20 µM (inconclusive).

In the case of `C[C@]12CCC(=O)C[C@@H]1CC[C@@H]1[C@@H]2CC[C@]2(C)[C@@H](O)CC[C@@H]12` [STANOLONE], the AC50 at Cytochrome P450 3A4 was 15.8 µM (inconclusive).

Turning to `Cc1cc(=O)oc2cc(O)c(O)cc12` [4-METHYLESCULETIN], the AC50 on Cytochrome P450 3A4 was 15.8 µM (inconclusive).

Take `CC1(C)CC(CCN)(Cc2ccccc2Cl)CCO1` (centres undefined): the EC50 in [1] is > 260 µM (inactive).

For `Fc1ccc(Sc2ccccc2CNC2=NCCN2)cc1`, the results for the 50% effective concentration (EC50) in assay [5], in assay [6] and in [1] were > 60 µM (not active), 1.49 µM (active) and > 260 µM (inactive), respectively.

Turning to `COc1cc(/C=N/Nc2snc(SC)c2C#N)ccc1O`, the EC50 in assay [1] is > 260 µM (inactive).

For `Cc1ccc(Cl)cc1N`, the AC50 on Cytochrome P450 3A4 was 31.6 µM (inconclusive).

For the molecule `CN(Cc1cccc2cnccc12)C(=O)c1cc(COc2ccc(F)cc2F)on1`, in assay [1], the EC50 was > 260 µM (inactive).

Regarding `O=[N+]([O-])c1ccc2cn[nH]c2c1`, the AC50 on Cytochrome P450 3A4 is 12.6 µM (inconclusive).

Regarding `Cc1ccc(N)cc1[N+](=O)[O-]`, the AC50 on Cytochrome P450 3A4 is 31.6 µM (inconclusive).

With `CC1=C(/C=C/C(C)=C/C=C/C(C)=C/CO)C(C)(C)CCC1` [RETINOL], the AC50 at Cytochrome P450 3A4 is 15.8 µM (inconclusive).

On to `CC1Cc2c(COc3ccccc3)nc3c(c2CO1)CN(CCOc1ccccc1)CC3` (centres undefined), for which the AC50 at Cytochrome P450 3A4 is 3.98 µM (inconclusive).

On to `COCCn1c(C)cc(C(=O)COC(=O)c2ccc(-n3nc(C)cc3C)cc2)c1C`, for which the EC50 in assay [1] is > 260 µM (inactive).

As to `Nc1cc(Cl)cc(Cl)c1`, on Cytochrome P450 3A4, the AC50 is 31.6 µM (inconclusive).

Regarding `O=C(COC(=O)c1ccc(S(=O)(=O)NCc2ccco2)cc1)Nc1ccccc1OC(F)F`, the EC50 in assay [1] is > 260 µM (inactive).

Consider `Nc1cccc2c1C(=O)c1ccc(Cl)cc1C2=O`, for which the figures for the IC50 at Protein skinhead-1 and on Nonstructural protein 1 were > 100 µM (inactive) and 24.6 µM (active), respectively.
